Values quoted from earlier work, collected in patent US10087176B2, “3,5-dichloro,4-(3,4-(cyclo-)alkoxyphenyl)--2-carbonyloxy)ethyl)pyridine derivatives as PDE-4 inhibitors” (Chiesi Farmaceutici S.p.A., priority 2014, dated 2018).

Legend:
[1] = tested on: lung inflammation and emphysema; conditions: smoking model of COPD in mice
[2] = tested on: neutrophils and CXCL8 in sputum; conditions: COPD patients, oral, given over 4 weeks
[3] = patients with severe disease, frequent exacerbations and mucus hypersecretion

Compound: O=C(Nc1c(Cl)cncc1Cl)c1ccc(OC(F)F)c(OCC2CC2)c1 [roflumilast]
- effect on lung inflammation and emphysema [1]: inhibits lung inflammation and emphysema
- effect on CXCL8 concentrations in sputum [2]: significantly reduces
- reduction of numbers of neutrophils in sputum [2]: 36%
- improvement of FEV 1 [3]: approximately 50 ml
- reduction of exacerbation [3]: about 15%
